Data set [1] concerns the target T1, IP receptor (Homo sapiens, UniProt P43119).
T1 construct: one million cells in 160 μl aliquot of cell suspension were put in a well of 96 well plate; host or cells: HEL 92.1.7 human erythroleukemia cells (whole cells)
The data set can be described thus: IP receptor binding/cAMP in HEL cells ([3H]-iloprost binding, Assay 1; iloprost-induced cAMP production, Assay 2). Conditions: compounds of about 40 to 90% purity, read-out: In vitro activity grade (IC50 class). The essentials: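 For binding (Assay 1), 1×10^6 HEL 92.1.7 cells in 50 mM Tris-HCl, 5 mM MgCl2, pH 7.5 were incubated with [3H]-iloprost (0.02 μCi) for 30 min at RT and filter-counted; a 100 μM iloprost solution defined non-specific binding. Compounds were of 40-90% purity.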
In general terms: cAMP levels reflect the balance of adenylyl cyclase and phosphodiesterase activity.

T1 sequence (P43119 whole entry): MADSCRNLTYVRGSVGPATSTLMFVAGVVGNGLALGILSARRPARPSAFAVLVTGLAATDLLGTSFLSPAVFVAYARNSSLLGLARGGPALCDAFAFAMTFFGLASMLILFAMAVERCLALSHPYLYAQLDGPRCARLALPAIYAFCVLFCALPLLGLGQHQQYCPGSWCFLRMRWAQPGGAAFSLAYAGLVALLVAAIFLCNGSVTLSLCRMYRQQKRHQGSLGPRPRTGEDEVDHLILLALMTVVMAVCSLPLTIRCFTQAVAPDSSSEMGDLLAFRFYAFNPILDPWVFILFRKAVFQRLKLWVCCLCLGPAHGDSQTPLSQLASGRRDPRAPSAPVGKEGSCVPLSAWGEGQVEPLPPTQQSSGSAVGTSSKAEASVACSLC

Take `O=C(O)C(Cc1ccccc1)Nc1cccc(-c2ccc(OCc3cccc(F)c3)cc2)c1` (stereo not drawn) [Example 24-5]: the melting point was 167 to 169 °C. The IC50 in data set [1] is less than 100 nM.

The compound `O=C(O)C(Cc1ccccc1)Nc1cccc(-c2ccc(OCc3ccc(F)cc3)cc2)c1` (stereo not drawn) [Example 24-6] showed a melting point of 175 to 178 °C. For the same compound, the concentration for half-maximal inhibition (IC50) in data set [1] lay in the range of 100 to 1000 nM.

Compound `O=C(O)C(Cc1ccccc1)Nc1cccc(-c2ccc(OCCn3cccc3)cc2)c1` (stereo not drawn) [Example 24-7] displayed a melting point of 182 to 185 °C. For the same compound, the IC50 in data set [1] is less than 100 nM.

For the compound `O=C(O)[C@H](Cc1ccccc1)Nc1cc(-c2ccc(OCc3ccccc3)nc2)ncn1` [Example 25-1, N-{6-[6-(benzyloxy)pyridin-3-yl]pyrimidin-4-yl}phenylalanine], the melting point is 130 to 133 °C. Further, the IC50 in data set [1] was less than 100 nM.

`O=C(O)C(Cc1ccccc1)Nc1cccc(-c2ccc(OCc3ccccc3)nc2)c1` (stereo not drawn) [Example 25-2] gave a melting point of 150 to 153 °C. In addition, the IC50 in data set [1] lay within 100 to 1000 nM.

The compound `O=C(O)C(Cc1ccccc1)Nc1cc(-c2ccc(OCC3CC3)nc2)ncn1` (stereo not drawn) [Example 25-3] displayed a melting point of 113 to 114 °C. In data set [1], the IC50 is less than 100 nM.

In turn, `O=C(NO)C(Cc1ccccc1)Nc1cc(-c2ccc(OCc3ccccc3)cc2)ncn1` (stereo not drawn) [Example 26-1, N-{6-[4-(Benzyloxy)phenyl]pyrimidin-4-yl}-N-hydroxyphenylalaninamide] yielded a melting point of 235 to 239 °C. The IC50 in data set [1] was less than 100 nM.

As for `c1ccc(COc2ccc(-c3cc(NC(Cc4ccccc4)c4nnn[nH]4)ncn3)cc2)cc1` (stereo not drawn) [Example 27-1, 6-[4-(Benzyloxy)phenyl]-N-[2-phenyl-1-(1H-tetrazol-5-yl)ethyl)pyrimidin-4-amine], the melting point came to 150 °C. For the same compound, the IC50 in data set [1] was less than 100 nM.

Compound `O=C(O)[C@H](Cc1ccccc1)Nc1ccnc(-c2ccc(OCc3ccccc3)cc2)c1` [Example 28-1, N-{2-[4-(Benzyloxy)phenyl]pyridin-4-yl}phenylalanine] gave a melting point of 137 to 139 °C. Further, the IC50 in data set [1] was less than 100 nM.

In general, IC50 refers to the concentration needed to halve the response being measured. A word on the melting point: it is the temperature, or range, at which the solid turns liquid.

Values taken from patent publication US20060089371A1, “Phenyl or heteroaryl amino alkane derivatives as ip receptor antagonist” (Bayer HealthCare AG, priority 2002, published 2006).
